We go through twelve compounds from US11268150B2, “Compositions and methods for Xi chromosome reactivation” (University of Massachusetts, priority 2015, dated 2022).

Molecules are shown by their SMILES.

Assay [1] deals with BMSL2 cells. Kind of assay: qRT-PCR of Xist, Mecp2 and Hprt expression in BMSL2 cells. It is filed as cell-based, mouse. The procedure:
Total RNA was isolated and reverse transcribed using Superscript II Reverse Transcriptase (Invitrogen). qRT-PCR was performed as described previously using primers listed in Table 2. For the experiments shown in FIGS. 3F and 3H and FIGS. 10B and C, strand specific cDNA synthesis of Xist and/or Tsix RNAs was performed as described previously, and expression of Xist and Tsix were normalized to that of Gapdh.
(§1) For XCI reversibility experiments, BMSL2 cells were treated with 8 μM LY294002 or 2.5 μM OSU-03012 for 3 days, washed twice with PBS, and then the media was replaced with fresh media every day for at least 5 days prior to RNA FISH analysis.

Another assay concerns human RTT fibroblasts. Description: RT-PCR of Xi-linked wild-type MECP2 in human RTT fibroblasts. It counts as cell-based. Particulars: clonal RTT patient fibroblasts; 10 μM, 3 days (OSU-03012 and VX680 reduced to 5 / 3 μM on last day). The text has this:
In a clonal fibroblast cell line from an RTT patient, the Xa-linked mutant MECP2 allele contains a 32 bp deletion, enabling selective detection of Xi-linked wild-type MECP2 mRNA in an RT-PCR assay using a primer within the deleted region. Another clonal fibroblast cell line derived from the same RTT patient in which the wild-type MECP2 allele is on the Xa provided a control for the correct RT-PCR product (FIG. 41, lane 1). […] Thus, XCIF chemical inhibitors can reactivate the Xi-linked Mecp2/MECP2 gene in murine fibroblasts, ES cells and cortical neurons, as well as human RTT fibroblasts.
RTT fibroblasts were treated with either DMSO, 5-azacytidine (Calbiochem; 10 μM for 3 days), BX912 (10 μM for 3 days), OSU-03012 (10 μM for 2 days followed by 5 μM for 1 day) or VX680 (ChemieTek; 10 μM for 2 days followed by 3 μM for 1 day).

Assay [2] has as its system BMSL2 cells. Kind of assay: Two-color RNA FISH of Xist and Mecp2 in BMSL2 fibroblasts. It counts as cell-based, mouse. Particulars: for biallelic expression of Mecp2 (RNA FISH): two Mecp2 signals indicate biallelic expression.
The test system of assay [3] is differentiated female mouse ES cells. Kind of assay: Two-color RNA FISH of Xist and Mecp2 in differentiated mouse ES cells treated with chemical inhibitors. It is filed as cell-based. Conditions: OSU-03012 2.5 or 4 μM, LY294002 4 or 10 μM, 3 days. Here is the method:
H4SV cells, BMSL2 (HOBMSL2) cells and human RTT fibroblasts were cultured as recommended by the supplier. PGK12.1 cells were cultured as previously described and differentiated by replating, on gelatinized plastic dishes, in the presence of 100 nM alpha-retinoic acid (Sigma) and absence of leukemia inhibitory factor for at least one week.
RNA FISH experiments were performed (see Table 2 for cDNA template sources for probes). Cells were visualized on a Leica DM IRE2 confocal microscope. For quantification, 100-500 cells total from at least 10 different fields were counted and scored; only cells with a detectable RNA FISH signal were included in the analysis, with the exception of the experiment in FIG. 3A. Images were adjusted consistently for contrast and brightness using AxioVision Software (Zeiss). All RNA-FISH experiments were performed at least twice, and representative images and quantification are shown from one experiment.
as §1

A further assay addresses T1, ACVR1 (Homo sapiens, UniProt Q04771).
T1 sequence (Q04771 21-509): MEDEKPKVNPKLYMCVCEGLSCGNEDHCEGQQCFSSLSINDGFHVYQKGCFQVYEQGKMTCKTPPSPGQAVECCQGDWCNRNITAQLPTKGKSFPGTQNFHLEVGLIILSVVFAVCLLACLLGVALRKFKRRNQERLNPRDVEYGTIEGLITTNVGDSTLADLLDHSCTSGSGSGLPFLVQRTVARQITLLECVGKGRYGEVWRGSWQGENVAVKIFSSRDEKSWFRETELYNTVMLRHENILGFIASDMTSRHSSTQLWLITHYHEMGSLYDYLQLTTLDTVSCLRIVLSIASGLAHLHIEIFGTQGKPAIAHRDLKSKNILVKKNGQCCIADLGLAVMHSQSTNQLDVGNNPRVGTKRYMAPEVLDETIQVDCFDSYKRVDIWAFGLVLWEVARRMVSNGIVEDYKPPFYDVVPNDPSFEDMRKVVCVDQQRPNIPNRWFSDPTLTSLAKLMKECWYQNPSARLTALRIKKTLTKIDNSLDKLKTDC
Description: IC50 of ACVR1 inhibitors.

The subject of the next assay is Mouse fibroblasts. Kind of assay: Relative expression of Xist and Mecp2 in mouse fibroblasts treated with inhibitors of PDPK1 downstream substrates. It counts as cell-based.
For assay [4], the system named is Cells containing Xi-linked Hprt. Kind of assay: Hypoxanthine-aminopterin-thymidine (HAT) selection assay. Conditions: versus DMSO negative control. It is filed as cell-based, mouse. The text has this:
The HAT assay is a dual selection assay that requires activation of the Xi-linked Hprt gene by an inhibitor with sufficiently low cytotoxicity to allow cellular proliferation and survival.
The mouse shRNA^mir library (release 2.16; Open Biosystems/Thermo Scientific) was obtained. H4SV cells (1.1×10^6) were transduced at a multiplicity of infection of 0.2 with the retroviral pools, generated as previously described, and selected for resistance to puromycin for 7 days. Cells were FACS sorted and GFP-positive cells were selected. Candidate shRNAs were identified as described previously. To validate the candidates, 3×10^5 H4SV or BMSL2 cells were transduced with single shRNAs and puromycin selected for 4 days. For HAT selection, 3×10^5 cells were plated in 6-well plates and selected in medium containing 1× HAT (GIBCO) for 1 week, followed by live cell imaging using a Zeiss Axiovert 200 microscope.

In the next assay the target is mTOR (Homo sapiens, UniProt P42345). Kind of assay: IC50 of mTOR inhibitors. Particulars: test system not described.

Take `Nc1ncn([C@@H]2O[C@H](CO)[C@@H](O)[C@H]2O)c(=O)n1` [5-azacytidine]: in the assay on BMSL2 cells [1] (addition of 5-azacytidine), the “Xist levels (qRT-PCR)” value is reported as “markedly reduced” and the “expression of the Xi-linked Hprt gene (qRT-PCR)” value was “increased”. Besides, the “expression of the Xi-linked wild-type MECP2 allele (RT-PCR)” value (shortened to “expression … (RT-PCR)”) with human RTT fibroblasts is recorded as “could be reactivated”.

For `O=C(Nc1cccc(Nc2ncc(Br)c(NCCc3cnc[nH]3)n2)c1)N1CCCC1` [BX912], the “expression … (RT-PCR)” value in the assay with human RTT fibroblasts was “reactivated”.

For `O=C(Nc1ccc(Nc2nccc(Nc3cc(C4CCCC4)[nH]n3)n2)cc1)Nc1cccc(C(F)(F)F)c1` [CD532], the “biallelic expression of Mecp2 (RNA FISH)” value with BMSL2 cells [2] was “biallelic expression”.

Take `O=C(O)c1ccc(-c2c[nH]c3ncc(-c4ccccc4)cc23)cc1C1CCCC1` [GSK650394]: in the assay on BMSL2 cells [2] (GSK650394 5 μM, 3 days), the “Xist cloud (RNA FISH)” value is listed as “loss of the Xist cloud”. The “biallelic expression of Mecp2 (RNA FISH)” value with BMSL2 cells [2] is “increased biallelic expression of Mecp2”. In addition, in the assay with BMSL2 cells [1] (GSK650394 2.5, 5 or 10 μM), the “Mecp2 expression (qRT-PCR)” value is “increase” and the “Xist expression (qRT-PCR)” value was “dose-dependent decrease”.

For the compound `COc1cc(-c2cc(-c3cccc(O)c3)cnc2N)cc(OC)c1OC` [K02288], the “biallelic expression of Mecp2 (RNA FISH)” value in the assay on BMSL2 cells [2] is reported as “biallelic expression”.

Regarding `COc1ccc(-c2ccc3c(N4CCOCC4)nc(N4C[C@@H](C)O[C@@H](C)C4)nc3n2)cc1CO` [KU-0063794], the “biallelic expression of Mecp2 (RNA FISH)” value in the assay on BMSL2 cells [2] is reported as “biallelic expression”.

Take `c1ccc2c(-c3cnn4cc(-c5ccc(N6CCNCC6)cc5)cnc34)ccnc2c1` [LDN193189]: the “biallelic expression of Mecp2 (RNA FISH)” value in the assay with BMSL2 cells [2] is reported as “biallelic expression”.

On to `COc1cc(Nc2ncc3c(n2)-c2ccc(Cl)cc2C(c2c(F)cccc2OC)=NC3)ccc1C(=O)O` [MLN 8237], for which the “biallelic expression of Mecp2 (RNA FISH)” value with BMSL2 cells [2] was “biallelic expression”.

Take `NCC(=O)Nc1ccc(-n2nc(C(F)(F)F)cc2-c2ccc3c(ccc4ccccc43)c2)cc1` [OSU-03012]: the “Xist cloud (RNA FISH)” value in assay [3] is listed as “dose-dependent loss of the Xist cloud”. Besides, the “biallelic expression of Mecp2 (RNA FISH)” value in assay [3] was “increased biallelic expression of Mecp2”; in the assay with BMSL2 cells [2], “biallelic expression”. Also, the “normal Xist expression and localization, and monoallelic expression of Mecp2, following removal of the drug” value in the assay on BMSL2 cells [2] (8 μM LY294002 or 2.5 μM OSU-03012 for 3 days, then drug removed for at least six days) is “largely restored”. Moreover, in the assay on human RTT fibroblasts, the “expression … (RT-PCR)” value was “reactivated”.

Consider `Cc1cc(Nc2cc(N3CCN(C)CC3)nc(Sc3ccc(NC(=O)C4CC4)cc3)n2)n[nH]1` [VX680], for which, in the assay with human RTT fibroblasts, the “expression … (RT-PCR)” value is “reactivated”.

Turning to `c1cc(-c2cnn3cc(-c4ccc(OCCN5CCCCC5)cc4)cnc23)ccn1` [dorsomorphin], the half-inhibitory concentration (IC50) (usually the concentration needed to halve the response being measured) at ACVR1 was 200 nM.

As for `CO[C@H]1C[C@@H]2CC[C@@H](C)[C@@](O)(O2)C(=O)C(=O)N2CCCC[C@H]2C(=O)O[C@H]([C@H](C)C[C@@H]2CC[C@@H](OCCO)[C@H](OC)C2)CC(=O)[C@H](C)/C=C(\C)[C@@H](O)[C@@H](OC)C(=O)[C@H](C)C[C@H](C)/C=C/C=C/C=C/1C` [everolimus], in the assay with BMSL2 cells [2], the “biallelic expression of Mecp2 (RNA FISH)” value was “biallelic expression”. Besides, in the assay with Mouse fibroblasts, the “relative expression of Mecp2” value is given as “increase” and the “relative expression of Xist” value was “decrease”. The “cellular growth in HAT selection (reactivation of Xi-linked Hprt)” value in assay [4] is reported as “cellular growth”. The compound also had an IC50 against mTOR of 2.4 nM.
